Laboratory results published in BindingDB's records for patent US11566007 (Revolution Medicines, 2023).

These molecules were tested against GTPase KRas [G13C] (Homo sapiens, UniProt P01116, G13C) (assay: Biochemical Assay).
Excerpt: (§1) The purpose of this biochemical assay is to measure the ability of test compounds to covalently label nucleotide-loaded K-Ras isoforms. […] Analysis of raw data may be carried out using Waters MassLynx MS software, with % bound calculated from the deconvoluted protein peaks for labeled and unlabeled K-Ras.

Chain of GTPase KRas [G13C] (P01116 whole entry G13C, canonical isoform): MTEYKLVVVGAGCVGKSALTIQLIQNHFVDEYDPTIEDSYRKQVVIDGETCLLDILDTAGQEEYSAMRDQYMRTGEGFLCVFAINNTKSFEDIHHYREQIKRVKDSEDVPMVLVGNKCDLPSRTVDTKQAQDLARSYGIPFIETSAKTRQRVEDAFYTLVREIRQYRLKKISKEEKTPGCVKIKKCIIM

IC50 | Compound
in the range around 550 nM | C=CC(=O)N1CCN(C(=O)N(C)[C@H](C(=O)N[C@H]2Cc3cc(O)cc(c3)-c3ccc4c(c3)c(c(-c3ccccc3CCOC)n4CC)CC(C)(C)COC(=O)[C@@H]3CCCN(N3)C2=O)C(C)C)CC1 [US11566007, Example A18]
in the range around 55 nM | CCn1c(-c2ccccc2CN(C)C)c2c3cc(ccc31)-c1cc(O)cc(c1)C[C@H](NC(=O)[C@H](C(C)C)N(C)C(=O)c1ccc(NC(=O)/C=C/CN(C)C)cn1)C(=O)N1CCC[C@H](N1)C(=O)OCC(C)(C)C2 [US11566007, Example A46]
in the range around 550 nM | CCn1c(-c2cnccc2COC)c2c3cc(ccc31)-c1cc(O)cc(c1)C[C@H](NC(=O)[C@H](C(C)C)N(C)C(=O)[C@H]1CCN(C(=O)/C=C/CN(C)C)C1)C(=O)N1CCC[C@H](N1)C(=O)OCC(C)(C)C2 [US11566007, Example A87]

The next lines start with the molecule.

Compound | IC50
C=CC(=O)N1CCCN(C(=O)N(C)[C@H](C(=O)N[C@H]2Cc3cc(O)cc(c3)-c3ccc4c(c3)c(c(-c3ccccc3CCOC)n4CC)CC(C)(C)COC(=O)[C@@H]3CCCN(N3)C2=O)C(C)C)CC1 [US11566007, Example A13] | in the range around 550 nM
C=CC(=O)N1C[C@H](C)[C@H](C(=O)N(C)[C@H](C(=O)N[C@H]2Cc3cc(O)cc(c3)-c3ccc4c(c3)c(c(-c3ccccc3CCOC)n4CC)CC(C)(C)COC(=O)[C@@H]3CCCN(N3)C2=O)C(C)C)C1 [US11566007, Example A41] | in the range around 5500 nM
CCn1c(-c2ccccc2CN(C)C)c2c3cc(ccc31)-c1cc(O)cc(c1)C[C@H](NC(=O)[C@H](C(C)C)N(C)C(=O)c1ccc(NC(=O)/C=C/CN(C)C)cc1)C(=O)N1CCC[C@H](N1)C(=O)OCC(C)(C)C2 [US11566007, Example A49] | in the range around 550 nM
CCn1c(-c2cccnc2COC)c2c3cc(ccc31)-c1cc(O)cc(c1)C[C@H](NC(=O)[C@H](C(C)C)N(C)C(=O)C1CN(C(=O)C#CCN(C)C)C1)C(=O)N1CCC[C@H](N1)C(=O)OCC(C)(C)C2 [US11566007, Example A97] | < 10 nM

These molecules were tested against GTPase KRas [G12C] (Homo sapiens, UniProt P01116, G12C) (assay: Biochemical Assay).
Excerpt: as §1

Chain of GTPase KRas [G12C] (P01116 whole entry G12C): as the sequence (P01116 whole entry G13C, canonical isoform) above, with G12C, C13G counted along it

IC50 | Compound
in the range around 550 nM | C=CC(=O)N1CC[C@H](C(=O)N(C)[C@H](C(=O)N[C@H]2Cc3cc(O)cc(c3)-c3ccc4c(c3)c(c(-c3ccc(CN5CCCC5)cc3)n4CC)CC(C)(C)COC(=O)[C@@H]3CCCN(N3)C2=O)C(C)C)C1 [US11566007, Example A10]
in the range around 550 nM | C=CC(=O)N1CC[C@H](C(=O)N(C)[C@H](C(=O)N[C@H]2Cc3cc(O)cc(c3)-c3ccc4c(c3)c(c(-c3ccccc3OC)n4CC)CC(C)(C)COC(=O)[C@@H]3CCCN(N3)C2=O)C(C)C)C1 [US11566007, Example A17]
in the range around 550 nM | C=CC(=O)N1CC[C@H](C(=O)N(C)[C@H](C(=O)N[C@H]2Cc3cc(N)cc(c3)-c3ccc4c(c3)c(c(-c3ccccc3COC)n4CC)CC(C)(C)COC(=O)[C@@H]3CCCN(N3)C2=O)C(C)C)C1 [US11566007, Example A42]
in the range around 550 nM | CCn1c(-c2ccccc2CN(C)C)c2c3cc(ccc31)-c1cc(O)cc(c1)C[C@H](NC(=O)[C@H](C(C)C)N(C)C(=O)c1ccc(NC(=O)/C=C/CN(C)C)cn1)C(=O)N1CCC[C@H](N1)C(=O)OCC(C)(C)C2 [US11566007, Example A46]
in the range around 55 nM | C=CC(=O)N1C[C@H](C)[C@H](C(=O)N(C)[C@H](C(=O)N[C@H]2Cc3cc(O)cc(c3)-c3ccc4c(c3)c(c(-c3cccnc3COC)n4CC)CC(C)(C)COC(=O)[C@@H]3CCCN(N3)C2=O)C2CCCC2)C1 [US11566007, Example A57]
in the range around 550 nM | C=CC(=O)N1CC[C@@]2(CCCN([C@H](C(=O)N[C@H]3Cc4cc(O)cc(c4)-c4ccc5c(c4)c(c(-c4ccccc4CCOC)n5CC)CC(C)(C)COC(=O)[C@@H]4CCCN(N4)C3=O)C(C)C)C2=O)C1 [US11566007, Example A63]
in the range around 550 nM | C=CC(=O)N1CC[C@H](C(=O)N(C)[C@H](C(=O)N[C@H]2Cc3cc(O)cc(c3)-c3ccc4c(c3)c(c(-c3cccnc3COC)n4C)CC(C)(C)COC(=O)[C@@H]3CCCN(N3)C2=O)C(C)C)C1 [US11566007, Example A66]

The next lines start with the molecule.

Compound | IC50
C=CC(=O)N1CC[C@H](C(=O)N(C)[C@H](C(=O)N[C@H]2Cc3cc(O)cc(c3)-c3ccc4c(c3)c(c(-c3ccc(CN5CC[C@@H](O)C5)cc3)n4CC)CC(C)(C)COC(=O)[C@@H]3CCCN(N3)C2=O)C(C)C)C1 [US11566007, Example A1] | in the range around 550 nM
C=CC(=O)N1CC[C@H](C(=O)N(C)[C@H](C(=O)N[C@H]2Cc3cc(O)cc(c3)-c3ccc4c(c3)c(c(-c3ccccc3CCOC)n4CC)CC(C)(C)COC(=O)[C@@H]3CCCN(N3)C2=O)C2CCOCC2)C1 [US11566007, Example A6] | in the range around 550 nM
C=CC(=O)N1CC[C@H](C(=O)N(C)[C@H](C(=O)N[C@H]2Cc3cc(OC(=O)CCN4CCN(C)CC4)cc(c3)-c3ccc4c(c3)c(c(-c3ccccc3CCOC)n4CC)CC(C)(C)COC(=O)[C@@H]3CCCN(N3)C2=O)C(C)C)C1 [US11566007, Example A7] | in the range around 550 nM
C=CC(=O)N1CC[C@H](C(=O)N(C)[C@H](C(=O)N[C@H]2Cc3cc(OC(=O)CN)cc(c3)-c3ccc4c(c3)c(c(-c3ccccc3CCOC)n4CC)CC(C)(C)COC(=O)[C@@H]3CCCN(N3)C2=O)C(C)C)C1 [US11566007, Example A8] | in the range around 550 nM
C=CC(=O)N1CCC(F)(C(=O)N(C)[C@H](C(=O)N[C@H]2Cc3cc(O)cc(c3)-c3ccc4c(c3)c(c(-c3ccccc3CCOC)n4CC)CC(C)(C)COC(=O)[C@@H]3CCCN(N3)C2=O)C(C)C)CC1 [US11566007, Example A11] | in the range around 550 nM
C=CC(=O)N1CCC(C(=O)N(C)[C@H](C(=O)N[C@H]2Cc3cc(O)cc(c3)-c3ccc4c(c3)c(c(-c3ccccc3CCOC)n4CC)CC(C)(C)COC(=O)[C@@H]3CCCN(N3)C2=O)C(C)C)CC1 [US11566007, Example A14] | in the range around 550 nM
C=CC(=O)N1CCC(F)(C(=O)N(C)[C@H](C(=O)N[C@H]2Cc3cc(O)cc(c3)-c3ccc4c(c3)c(c(-c3ccccc3CN(C)C)n4CC)CC(C)(C)COC(=O)[C@@H]3CCCN(N3)C2=O)C(C)C)CC1 [US11566007, Example A20] | in the range around 55 nM
C=CC(=O)N1CC[C@H](C(=O)N(C)[C@H](C(=O)N[C@H]2Cc3cc(O)cc(c3)-c3ccc4c(c3)c(c(-c3ccccc3[C@@H](C)OC)n4CC)CC(C)(C)COC(=O)[C@@H]3CCCN(N3)C2=O)C(C)C)C1 [US11566007, Example A29] | in the range around 55 nM
C=CC(=O)N1CC[C@H](C(=O)N(C)[C@H](C(=O)N[C@H]2Cc3cc(O)cc(c3)-c3ccc4c(c3)c(c(-c3cccc(CN(C)C)c3)n4CC)CC(C)(C)COC(=O)[C@@H]3CCCN(N3)C2=O)C(C)C)C1 [US11566007, Example A30] | in the range around 550 nM
C=CC(=O)N1CC2(CCN([C@H](C(=O)N[C@H]3Cc4cc(O)cc(c4)-c4ccc5c(c4)c(c(-c4ccccc4CCOC)n5CC)CC(C)(C)COC(=O)[C@@H]4CCCN(N4)C3=O)C(C)C)C2=O)C1 [US11566007, Example A31] | in the range around 55 nM
C=CC(=O)N1CC[C@H](C(=O)N(C)[C@H](C(=O)N[C@H]2Cc3cc(O)cc(c3)-c3ccc4c(c3)c(c(-c3ccc(C5CCN(C)CC5)cc3)n4CC)CC(C)(C)COC(=O)[C@@H]3CCCN(N3)C2=O)C(C)C)C1 [US11566007, Example A39] | in the range around 550 nM
C=CC(=O)N1C[C@H](C)[C@H](C(=O)N(C)[C@H](C(=O)N[C@H]2Cc3cc(O)cc(c3)-c3ccc4c(c3)c(c(-c3ccccc3CN(C)C)n4CC)CC(C)(C)COC(=O)[C@@H]3CCCN(N3)C2=O)C2CCCC2)C1 [US11566007, Example A43] | in the range around 55 nM
C=CC(=O)N1CC[C@H](C(=O)N(C)[C@H](C(=O)N[C@H]2Cc3cc(O)cc(c3)-c3ccc4c(c3)c(c(-c3cccnc3COCC)n4CC)CC(C)(C)COC(=O)[C@@H]3CCCN(N3)C2=O)C(C)C)C1 [US11566007, Example A44] | in the range around 55 nM
C=CC(=O)N1C[C@H](C)[C@H](C(=O)N(C)[C@H](C(=O)N[C@H]2Cc3cc(O)cc(c3)-c3ccc4c(c3)c(c(-c3ccccc3CN(C)C)n4CC)CC(C)(C)COC(=O)[C@@H]3CCCN(N3)C2=O)C(C)C)C1 [US11566007, Example A52] | in the range around 55 nM
C=CC(=O)N1CC[C@H](C(=O)N(C)[C@H](C(=O)N[C@H]2Cc3cc(O)cc(c3)-c3ccc4c(c3)c(c(-c3cccnc3COC)n4CC)CC(C)(C)COC(=O)[C@@H]3CCCN(N3)C2=O)C2CCCC2)C1 [US11566007, Example A55] | in the range around 55 nM
C=CC(=O)N1C[C@H](C)[C@H](C(=O)N(C)[C@H](C(=O)N[C@H]2Cc3cc(O)cc(c3)-c3ccc4c(c3)c(c(-c3cccnc3COC)n4CC)CC(C)(C)COC(=O)[C@@H]3CCCN(N3)C2=O)C(C)C)C1 [US11566007, Example A56] | in the range around 55 nM
C=CC(=O)N1CC[C@H](C(=O)N(C)[C@H](C(=O)N[C@H]2Cc3cc(O)cc(c3)-c3ccc4c(c3)c(c(-c3cncc(C#N)c3)n4CC)CC(C)(C)COC(=O)[C@@H]3CCCN(N3)C2=O)C(C)C)C1 [US11566007, Example A62] | in the range around 550 nM
C=CC(=O)N1CC[C@@]2(CCN([C@H](C(=O)N[C@H]3Cc4cc(O)cc(c4)-c4ccc5c(c4)c(c(-c4ccccc4CCOC)n5CC)CC(C)(C)COC(=O)[C@@H]4CCCN(N4)C3=O)C(C)C)C2=O)C1 [US11566007, Example A68] | in the range around 550 nM
C=CC(=O)N1CC[C@H](C(=O)N(C)[C@H](C(=O)N[C@H]2Cc3cc(O)cc(c3)-c3ccc4c(c3)c(c(-c3cncc(CN(C)C)c3)n4CC)CC(C)(C)COC(=O)[C@@H]3CCCN(N3)C2=O)C(C)C)C1 [US11566007, Example A73] | in the range around 550 nM

The molecules below were run against GTPase NRas [G12C] (Homo sapiens, UniProt P01111, G12C) (assay: Biochemical Assay).
Chain of GTPase NRas [G12C] (P01111 whole entry G12C): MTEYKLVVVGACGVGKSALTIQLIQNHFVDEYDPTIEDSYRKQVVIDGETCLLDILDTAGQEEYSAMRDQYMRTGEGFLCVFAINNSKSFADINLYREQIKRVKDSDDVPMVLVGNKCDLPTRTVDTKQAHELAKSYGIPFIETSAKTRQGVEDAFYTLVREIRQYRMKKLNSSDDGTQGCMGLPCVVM

IC50 | Compound
in the range around 5500 nM | C=CC(=O)N1CC[C@H](C(=O)N(C)[C@H](C(=O)N[C@H]2Cc3cccc(c3)-c3ccc4c(c3)c(c(-c3ccccc3CCOC)n4CC)CC(C)(C)COC(=O)[C@@H]3CCCN(N3)C2=O)C(C)C)C1 [US11566007, Example A24]
